These compounds were tested on HT-29 cells (assay: HT-29 necroptosis cell viability assay (TNF-α/SMAC mimetic/zVAD-FMK, CellTiter-Glo)). Details: Homo sapiens, HT-29, HT-29 necroptosis cell viability, IC50 class symbols; read-out: Activity.
Format: cell-based
Procedure, shortened: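 HT-29 cells (~5,000/well, overnight) in FBS-free McCoy's 5A with TNF-α 10 ng/ml, SMAC mimetic 6 μM and zVAD-FMK 10 μM plus 10-point 1:3 compound titration, 20 h at 37°C. ATP measured by CellTiter-Glo luminescence; IC50 as geometric mean of duplicates.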

| SMILES | IC50 [nM] |
| --- | --- |
| O=c1n(Cc2c(F)cccc2F)cnn1-c1ccc(Oc2ccnc(NC3(C(F)(F)F)CC3)c2F)cc1 [Example 362, 4-(2,6-difluorobenzyl)-2-(4-((3-fluoro-2-((1-(trifluoromethyl)cyclopropyl)amino)pyridin-4-yl)oxy)phenyl)-2,4-dihydro-3H-1,2,4-triazol-3-one] | 1000 to 10000 |
| CCOC1CN(c2nccc(Oc3ccc(-n4ncn(Cc5c(F)cccc5F)c4=O)cc3F)c2F)C1 [Example 363, 4-(2,6-difluorobenzyl)-2-(4-((2-(3-ethoxyazetidin-1-yl)-3-fluoropyridin-4-yl)oxy)-3-fluorophenyl)-2,4-dihydro-3H-1,2,4-triazol-3-one] | < 100 |
| CCOC1CN(c2cc(Oc3ccc(-n4ncn(Cc5c(F)cccc5F)c4=O)cc3F)c(F)cn2)C1 [Example 364, 4-(2,6-difluorobenzyl)-2-(4-((2-(3-ethoxyazetidin-1-yl)-5-fluoropyridin-4-yl)oxy)-3-fluorophenyl)-2,4-dihydro-3H-1,2,4-triazol-3-one] | < 100 |
| CCOC1CN(c2cc(Oc3ccc(-n4ncn(Cc5c(F)cccc5F)c4=O)cc3F)c(Cl)cn2)C1 [Example 365, 2-(4-((5-chloro-2-(3-ethoxyazetidin-1-yl)pyridin-4-yl)oxy)-3-fluorophenyl)-4-(2,6-difluorobenzyl)-2,4-dihydro-3H-1,2,4-triazol-3-one] | < 100 |
| COC1(C#N)CN(c2cc(Oc3ccc(-n4ncn(Cc5c(F)cccc5F)c4=O)cc3)ccn2)C1 [Example 366, 1-(4-(4-(4-(2,6-difluorobenzyl)-5-oxo-4,5-dihydro-1H-1,2,4-triazol-1-yl)phenoxy)pyridin-2-yl)-3-methoxyazetidine-3-carbonitrile] | < 100 |
| COC1(C#N)CN(c2cc(Oc3ccc(-n4ncn(Cc5c(F)cccc5F)c4=O)cc3F)ccn2)C1 [Example 367, 1-(4-(4-(4-(2,6-difluorobenzyl)-5-oxo-4,5-dihydro-1H-1,2,4-triazol-1-yl)-2-fluorophenoxy)pyridin-2-yl)-3-methoxyazetidine-3-carbonitrile] | < 100 |
| C[C@H]1C[C@@H](NC(=O)OC(C)(C)C)CN1c1cc(Oc2ccc(-n3ncn(Cc4c(F)cccc4F)c3=O)cc2F)ccn1 [Example 368, tert-butyl ((3R,5S)-1-(4-(4-(4-(2,6-difluorobenzyl)-5-oxo-4,5-dihydro-1H-1,2,4-triazol-1-yl)-2-fluorophenoxy)pyridin-2-yl)-5-methylpyrrolidin-3-yl)carbamate] | 100 to 1000 |
| C[C@H]1C[C@@H](N)CN1c1cc(Oc2ccc(-n3ncn(Cc4c(F)cccc4F)c3=O)cc2F)ccn1 [Example 369, 2-(4-((2-((2S,4R)-4-amino-2-methylpyrrolidin-1-yl)pyridin-4-yl)oxy)-3-fluorophenyl)-4-(2,6-difluorobenzyl)-2,4-dihydro-3H-1,2,4-triazol-3-one] | < 100 |
| CCOC1CN(c2cc(Oc3ccc(-n4ncn(Cc5c(F)cccc5F)c4=O)cc3F)c(C)cn2)C1 [Example 370, 4-(2,6-difluorobenzyl)-2-(4-((2-(3-ethoxyazetidin-1-yl)-5-methylpyridin-4-yl)oxy)-3-fluorophenyl)-2,4-dihydro-3H-1,2,4-triazol-3-one] | < 100 |
| CN(C)C1(C)CN(c2cc(Oc3ccc(-n4ncn(Cc5c(F)cccc5F)c4=O)cc3F)c(F)cn2)C1 [Example 371, 4-(2,6-difluorobenzyl)-2-(4-((2-(3-(dimethylamino)-3-methylazetidin-1-yl)-5-fluoropyridin-4-yl)oxy)-3-fluorophenyl)-2,4-dihydro-3H-1,2,4-triazol-3-one] | 100 to 1000 |
| CC(C)(C)OC(=O)NC(C)(C)C1CN(c2cc(Oc3ccc(-n4ncn(Cc5c(F)cccc5F)c4=O)cc3F)c(F)cn2)C1 [Example 372, tert-butyl (2-(1-(4-(4-(4-(2,6-difluorobenzyl)-5-oxo-4,5-dihydro-1H-1,2,4-triazol-1-yl)-2-fluorophenoxy)-5-fluoropyridin-2-yl)azetidin-3-yl)propan-2-yl)carbamate] | < 100 |
| CC(C)(C)OC(=O)NC[C@H]1CCN1c1cc(Oc2ccc(-n3ncn(Cc4c(F)cccc4F)c3=O)cc2F)c(F)cn1 [Example 373, tert-butyl (R)-((1-(4-(4-(4-(2,6-difluorobenzyl)-5-oxo-4,5-dihydro-1H-1,2,4-triazol-1-yl)-2-fluorophenoxy)-5-fluoropyridin-2-yl)azetidin-2-yl)methyl)carbamate] | < 100 |
| CC(C)(N)C1CN(c2cc(Oc3ccc(-n4ncn(Cc5c(F)cccc5F)c4=O)cc3F)c(F)cn2)C1 [Example 374, 2-(4-((2-(3-(2-aminopropan-2-yl)azetidin-1-yl)-5-fluoropyridin-4-yl)oxy)-3-fluorophenyl)-4-(2,6-difluorobenzyl)-2,4-dihydro-3H-1,2,4-triazol-3-one] | 100 to 1000 |
| NC[C@H]1CCN1c1cc(Oc2ccc(-n3ncn(Cc4c(F)cccc4F)c3=O)cc2F)c(F)cn1 [Example 375, (R)-2-(4-((2-(2-(aminomethyl)azetidin-1-yl)-5-fluoropyridin-4-yl)oxy)-3-fluorophenyl)-4-(2,6-difluorobenzyl)-2,4-dihydro-3H-1,2,4-triazol-3-one] | < 100 |
| C[C@H]1[C@H](NC(=O)OC(C)(C)C)CN1c1cc(Oc2ccc(-n3ncn(Cc4c(F)cccc4F)c3=O)cc2F)c(F)cn1 [Example 376, tert-butyl ((2S,3R)-1-(4-(4-(4-(2,6-difluorobenzyl)-5-oxo-4,5-dihydro-1H-1,2,4-triazol-1-yl)-2-fluorophenoxy)-5-fluoropyridin-2-yl)-2-methylazetidin-3-yl)carbamate] | < 100 |
| C[C@H]1[C@H](N)CN1c1cc(Oc2ccc(-n3ncn(Cc4c(F)cccc4F)c3=O)cc2F)c(F)cn1 [Example 377, 2-(4-((2-((2S,3R)-3-amino-2-methylazetidin-1-yl)-5-fluoropyridin-4-yl)oxy)-3-fluorophenyl)-4-(2,6-difluorobenzyl)-2,4-dihydro-3H-1,2,4-triazol-3-one] | < 100 |
| NC1(CO)CN(c2cc(Oc3ccc(-n4ncn(Cc5c(F)cccc5F)c4=O)cc3F)c(F)cn2)C1 [Example 378, 2-(4-((2-(3-amino-3-(hydroxymethyl)azetidin-1-yl)-5-fluoropyridin-4-yl)oxy)-3-fluorophenyl)-4-(2,6-difluorobenzyl)-2,4-dihydro-3H-1,2,4-triazol-3-one] | 100 to 1000 |
| O=c1n(Cc2c(F)cccc2F)cnn1-c1ccc(Oc2ccnc(N3CCC34CNC4)c2)cc1 [Example 379, 2-(4-((2-(1,6-diazaspiro[3.3]heptan-1-yl)pyridin-4-yl)oxy)phenyl)-4-(2,6-difluorobenzyl)-2,4-dihydro-3H-1,2,4-triazol-3-one] | 100 to 1000 |
| O=c1n(Cc2c(F)cccc2F)cnn1-c1ccc(Oc2ccnc(N3CC4(CCNCC4)C3)c2)cc1 [Example 380, 2-[4-[[2-(2,7-diazaspiro[3.5]nonan-2-yl)-4-pyridyl]oxy]phenyl]-4-[(2,6-difluorophenyl)methyl]-1,2,4-triazol-3-one] | 100 to 1000 |
| N#CC1(CNc2cc(Oc3ccc(-n4ncn(Cc5c(F)cccc5F)c4=O)cc3)ccn2)CC1 [Example 381, 1-(((4-(4-(4-(2,6-difluorobenzyl)-5-oxo-4,5-dihydro-1H-1,2,4-triazol-1-yl)phenoxy)pyridin-2-yl)amino)methyl)cyclopropane-1-carbonitrile] | < 100 |
| C[C@@H]1CN(c2cc(Oc3ccc(-n4ncn(Cc5c(F)cccc5F)c4=O)cc3)ccn2)C[C@H](C)O1 [Example 382, 4-(2,6-difluorobenzyl)-2-(4-((2-((2R,6S)-2,6-dimethylmorpholino)pyridin-4-yl)oxy)phenyl)-2,4-dihydro-3H-1,2,4-triazol-3-one] | 100 to 1000 |
| CC1(C#N)CN(c2cc(Oc3ccc(-n4ncn(Cc5c(F)cccc5F)c4=O)cc3)ccn2)C1 [Example 383, 1-(4-(4-(4-(2,6-difluorobenzyl)-5-oxo-4,5-dihydro-1H-1,2,4-triazol-1-yl)phenoxy)pyridin-2-yl)-3-methylazetidine-3-carbonitrile] | < 100 |
| N#CC1CCN(c2cc(Oc3ccc(-n4ncn(Cc5c(F)cccc5F)c4=O)cc3)ccn2)C1 (stereo not shown) [Example 384, 1-(4-(4-(4-(2,6-difluorobenzyl)-5-oxo-4,5-dihydro-1H-1,2,4-triazol-1-yl)phenoxy)pyridin-2-yl)pyrrolidine-3-carbonitrile] | < 100 |
| CC(C)(C)CCNc1cc(Oc2ccc(-n3ncn(Cc4c(F)cccc4F)c3=O)cc2)ccn1 [Example 385, 4-(2,6-difluorobenzyl)-2-(4-((2-((3,3-dimethylbutyl)amino)pyridin-4-yl)oxy)phenyl)-2,4-dihydro-3H-1,2,4-triazol-3-one] | 1000 to 10000 |
| CC(C)(C)CNc1cc(Oc2ccc(-n3ncn(Cc4c(F)cccc4F)c3=O)cc2)ccn1 [Example 386, 4-(2,6-difluorobenzyl)-2-(4-((2-(neopentylamino)pyridin-4-yl)oxy)phenyl)-2,4-dihydro-3H-1,2,4-triazol-3-one] | < 100 |
| CC(C)(C)Nc1cc(Oc2ccc(-n3ncn(Cc4c(F)cccc4F)c3=O)cc2)ccn1 [Example 387, 2-(4-((2-(tert-butylamino)pyridin-4-yl)oxy)phenyl)-4-(2,6-difluorobenzyl)-2,4-dihydro-3H-1,2,4-triazol-3-one] | 100 to 1000 |
| CC(C)(C)Oc1cc(Oc2ccc(-n3ncn(Cc4c(F)cccc4F)c3=O)cc2)ccn1 [Example 388, 2-(4-((2-(tert-butoxy)pyridin-4-yl)oxy)phenyl)-4-(2,6-difluorobenzyl)-2,4-dihydro-3H-1,2,4-triazol-3-one] | 100 to 1000 |
| C[C@@H]1[C@H](C#N)CN1c1nccc(Oc2ccc(-n3ncn(Cc4c(F)cccc4F)c3=O)cc2F)c1F [Example 389, (2R,3R)-1-(4-(4-(4-(2,6-difluorobenzyl)-5-oxo-4,5-dihydro-1H-1,2,4-triazol-1-yl)-2-fluorophenoxy)-3-fluoropyridin-2-yl)-2-methylazetidine-3-carbonitrile] | < 100 |

Source: patent publication US20250179061A1 (SIRONAX LTD., priority 2022, published 2025)
